Assay results reported in patent publication US20120264735A1 (priority 2009, published 2012).

What follows are molecules tested against T1, c-Met kinase (recombinant c-Met) (Homo sapiens, UniProt P08581) (assay: In vitro kinase assay I (homogeneous time-resolved fluorescence tyrosine kinase assay)).
T1 construct: 0.27 nM recombinant c-Met
Format: biochemical
In short: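 Biotinylated peptide (0.5 μM) phosphorylated by 0.2 nM recombinant c-Met with 50 μM MgATP, 60 min at room temperature, pH 7.4, 5% DMSO. EDTA stop; HTRF read with Eu-anti-phosphotyrosine antibody and streptavidin-APC. IC50 from 4-parameter logistic fit.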

T1 sequence (P08581 25-1390): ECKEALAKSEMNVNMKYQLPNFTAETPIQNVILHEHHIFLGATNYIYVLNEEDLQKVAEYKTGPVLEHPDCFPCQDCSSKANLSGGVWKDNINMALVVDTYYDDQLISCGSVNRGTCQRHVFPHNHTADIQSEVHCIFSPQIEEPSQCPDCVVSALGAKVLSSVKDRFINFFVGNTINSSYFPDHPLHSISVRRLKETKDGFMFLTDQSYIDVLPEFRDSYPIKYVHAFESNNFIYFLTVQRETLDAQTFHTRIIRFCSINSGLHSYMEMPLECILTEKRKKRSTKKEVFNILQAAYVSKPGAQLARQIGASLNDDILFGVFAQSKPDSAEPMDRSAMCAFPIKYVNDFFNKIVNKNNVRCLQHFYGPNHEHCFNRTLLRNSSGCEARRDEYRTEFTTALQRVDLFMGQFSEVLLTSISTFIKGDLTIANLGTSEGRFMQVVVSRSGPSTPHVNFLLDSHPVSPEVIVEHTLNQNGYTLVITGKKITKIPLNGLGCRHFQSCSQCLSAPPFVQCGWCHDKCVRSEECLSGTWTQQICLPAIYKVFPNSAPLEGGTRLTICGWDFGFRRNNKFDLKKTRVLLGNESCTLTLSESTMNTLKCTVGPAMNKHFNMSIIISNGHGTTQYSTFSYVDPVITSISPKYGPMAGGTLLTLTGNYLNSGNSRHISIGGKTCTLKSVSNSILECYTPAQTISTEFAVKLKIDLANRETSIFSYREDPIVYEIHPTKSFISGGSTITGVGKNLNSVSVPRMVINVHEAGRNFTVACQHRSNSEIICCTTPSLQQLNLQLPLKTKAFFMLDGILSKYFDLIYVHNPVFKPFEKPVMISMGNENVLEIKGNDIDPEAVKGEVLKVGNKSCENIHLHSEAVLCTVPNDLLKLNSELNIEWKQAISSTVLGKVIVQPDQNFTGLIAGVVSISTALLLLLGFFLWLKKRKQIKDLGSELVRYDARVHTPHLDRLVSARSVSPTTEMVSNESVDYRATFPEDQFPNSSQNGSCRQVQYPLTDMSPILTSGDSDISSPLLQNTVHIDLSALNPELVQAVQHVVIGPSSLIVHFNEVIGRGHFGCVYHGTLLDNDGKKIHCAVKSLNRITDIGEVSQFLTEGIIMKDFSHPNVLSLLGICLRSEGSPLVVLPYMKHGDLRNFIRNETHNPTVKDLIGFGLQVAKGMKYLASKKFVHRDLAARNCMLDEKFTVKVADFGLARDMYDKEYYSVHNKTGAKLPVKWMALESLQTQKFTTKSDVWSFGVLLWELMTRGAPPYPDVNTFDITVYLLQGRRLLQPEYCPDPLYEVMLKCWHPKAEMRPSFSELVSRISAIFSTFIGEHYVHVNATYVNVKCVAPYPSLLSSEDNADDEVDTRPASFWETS

| IC50 [nM] | SMILES |
| --- | --- |
| < 100 | O=C(Nc1cccc(Cc2nn(-c3cc(F)c(F)c(F)c3)ccc2=O)c1)OCCN1CCCC1=O [Example 549, 2-(2-oxopyrrolidin-1-yl)ethyl (3-{[4-oxo-1-(3,4,5-trifluorophenyl)-1,4-dihydropyridazin-3-yl]methyl}phenyl)carbamate] |
| < 100 | CCOc1cnc(-c2cccc(Cc3nn(-c4cc(F)c(Br)c(F)c4)ccc3=O)c2)nc1 [Example 147, 1-(4-bromo-3,5-difluorophenyl)-3-[3-(5-ethoxypyrimidin-2-yl)benzyl]pyridazin-4(1H)-one] |
| 100 to 1000 | CCOC(=O)c1cccc(Cc2nn(-c3cnn(C)c3)ccc2=O)c1F [Example 47, ethyl 2-fluoro-3-{[1-(1-methyl-1H-pyrazol-4-yl)-4-oxo-1,4-dihydropyridazin-3-yl]methyl}benzoate] |
| < 100 | COCCOC(=O)Nc1cccc(Cc2nn(-c3cnn(C)c3)ccc2=O)c1 [Example 54, 2-methoxyethyl (3-{[1-(1-methyl-1H-pyrazol-4-yl)-4-oxo-1,4-dihydropyridazin-3-yl]methyl}phenyl)carbamate] |
| < 100 | COCCOc1cnc(-c2cccc(Cc3nn(-c4cnn(C)c4F)cc(F)c3=O)c2)nc1 [Example 751, 5-Fluoro-1-(5-fluoro-1-methyl-1H-pyrazol-4-yl)-3-{3-[5-(2-methoxyethoxy)pyrimidin-2-yl]benzyl}pyridazin-4(1h)-one] |
| < 100 | CC(C)COC(=O)Nc1cccc(Cc2nn(-c3ccc(-c4ccncc4)cc3)ccc2=O)c1 [Example 728, 2-methylpropyl (3-({4-oxo-1-(4-(pyridin-4-yl)phenyl)-1,4-dihydropyridazin-3-yl}methyl}phenyl) carbamate] |
| < 100 | CCn1cc(-n2ccc(=O)c(Cc3cccc(-c4ncc(OCC(F)F)cn4)c3)n2)cn1 [Example 306, 3-{3-[5-(2,2-difluoroethoxy)pyrimidin-2-yl]benzyl}-1-(1-ethyl-1H-pyrazol-4-yl)pyridazin-4(1H)-one] |
| < 100 | COCCOC(=O)Nc1cccc(C(C)c2nn(-c3cnn(C)c3)ccc2=O)c1 (single isomer, unassigned) [Example 652, 2-methoxyethyl (3-{(1S or R)-1-[1-(1-methyl-1H-pyrazol-4-yl)-4-oxo-1,4-dihydropyridazin-3-yl]ethyl}phenyl)carbamate] |
| < 100 | CC1COCCN1c1cnc(-c2cccc(Cc3nn(-c4cnn(C)c4)ccc3=O)c2)nc1 (racemic) [Example 450, rac-3-{3-[5-(3-methylmorpholin-4-yl)pyrimidin-2-yl]benzyl}-1-(1-methyl-1H-pyrazol-4-yl)pyridazin-4(1H)-one] |
| 100 to 1000 | CCOc1cnc2ccc(Cc3nn(-c4cnn(CC)c4)ccc3=O)cc2c1 [Example 160, 3-[(3-ethoxyquinolin-6-yl)methyl]-1-(1-ethyl-1H-pyrazol-4-yl)pyridazin-4(1H)-one] |
| < 100 | CCOc1cnc(-c2cccc(Cc3nn(-c4cnn(C5CNC5)c4)ccc3=O)c2)nc1 [Example 663, 1-(1-Azetidin-3-yl-1H-pyrazol-4-yl)-3-[3-(5-ethoxypyrimidin-2-yl)benzyl]pyridazin-4(1H)-one] |
| < 100 | CC(C)(O)COc1cnc(-c2cccc(Cc3nn(-c4cc(F)cc(C#N)c4)ccc3=O)c2)nc1 [Example 6, 3-Fluoro-5-[3-{3-[5-(2-hydroxy-2-methylpropoxy)pyrimidin-2-yl]benzyl}-4-oxopyridazin-1(4H)-yl]benzonitrile] |
| < 100 | COc1cnc(-c2cccc(Cc3nn(-c4cc(Cl)cc(C#N)c4)ccc3=O)c2)nc1 [Example 126, 3-chloro-5-{3-[3-(5-methoxypyrimidin-2-yl)benzyl]-4-oxopyridazin-1(4H)-yl}benzonitrile] |
| < 100 | COCCOc1cnc(-c2cccc(Cc3nn(-c4cnn(C)c4)ccc3=O)c2)nc1 [Example 4, 3-{3-[5-(2-Methoxyethoxy)pyrimidin-2-yl]benzyl}-1-(1-methyl-1H-pyrazol-4-yl)pyridazin-4(1H)-one] |
| < 100 | CCn1cc(-n2ccc(=O)c(Cc3cccc(-c4ncc(OC5CCOC5)cn4)c3)n2)cn1 (racemic) [Example 309, rac-1-(1-ethyl-1H-pyrazol-4-yl)-3-{3-[5-(tetrahydrofuran-3-yloxy)pyrimidin-2-yl]benzyl}pyridazin-4(1H)-one] |
| 100 to 1000 | COCCOc1cnc(-c2cccc(C(C)c3nn(-c4cnn(C)c4)ccc3=O)c2)nc1 (single isomer, unassigned) [Example 222, 3-((1S or R)-1-{3-[5-(2-methoxyethoxy)pyrimidin-2-yl]phenyl}ethyl)-1-(1-methyl-1H-pyrazol-4-yl)pyridazin-4(1H)-one] |
| < 100 | CCOc1cnc(-c2cccc(Cc3nn(-c4cccc(Br)c4)ccc3=O)c2)nc1 [Example 143, 1-(3-bromophenyl)-3-[3-(5-ethoxypyrimidin-2-yl)benzyl]pyridazin-4(1H)-one] |
| < 100 | Cn1cc(-n2ccc(=O)c(Cc3cccc(NC(=O)OCC4(C)COC4)c3)n2)cn1 [Example 543, (3-methyloxetan-3-yl)methyl (3-{[1-(1-methyl-1H-pyrazol-4-yl)-4-oxo-1,4-dihydropyridazin-3-yl]methyl}phenyl)carbamate] |

| IC50 [nM] | SMILES |
| --- | --- |
| < 100 | Cn1cc(-n2ccc(=O)c(Cc3cccc(-c4ncc(OCC5CCCO5)cn4)c3)n2)cn1 (racemic) [Example 260, rac-1-(1-methyl-1H-pyrazol-4-yl)-3-{3-[5-(tetrahydrofuran-2-ylmethoxy)pyrimidin-2-yl]benzyl}pyridazin-4(1H)-one] |
| < 100 | Cn1cc(-n2ccc(=O)c(Cc3cccc(NC(=O)OCC4CCOC(C)(C)C4)c3)n2)cn1 (racemic) [Example 611, rac-(2,2-dimethyl-tetrahydro-2H-pyran-4-yl)methyl (3-{[1-(1-methyl-1H-pyrazol-4-yl)-4-oxo-1,4-dihydropyridazin-3-yl]methyl}phenyl)carbamate] |
| < 100 | Cn1cc(-n2ccc(=O)c(Cc3cccc(-c4ncc(-c5ccc(F)cn5)cn4)c3)n2)cn1 [Example 418, 3-{3-[5-(5-fluoropyridin-2-yl)pyrimidin-2-yl]benzyl}-1-(1-methyl-1H-pyrazol-4-yl)pyridazin-4(1H)-one] |
| 100 to 1000 | CCOc1cnc(-c2cccc(C(O)c3nn(-c4cnn(C)c4)ccc3=O)c2)nc1 (racemic) [Example 654, rac-3-[[3-(5-Ethoxypyrimidin-2-yl)phenyl](hydroxy)methyl]-1-(1-methyl-1H-pyrazol-4-yl)pyridazin-4(1H)-one] |
| < 100 | CCOc1ccc(-c2cccc(Cc3nn(-c4cnn(C)c4)ccc3=O)c2)nc1 [Example 677] |
| < 100 | COCCOc1cnc(-c2cccc(Cc3nn(-c4cc(F)cc(F)c4)ccc3=O)c2)nc1 [Example 149, 1-(3,5-difluorophenyl)-3-{3-[5-(2-methoxyethoxy)pyrimidin-2-yl]benzyl}pyridazin-4(1H)-one] |
| < 100 | CCn1cc(-n2ccc(=O)c(Cc3cccc(-c4ncc(OCC(C)(C)O)cn4)c3)n2)cn1 [Example 359, 1-(1-ethyl-1H-pyrazol-4-yl)-3-{3-[5-(2-hydroxy-2-methylpropoxy)pyrimidin-2-yl]benzyl}pyridazin-4(1H)-one] |
| < 100 | CC(c1cccc(-c2ncc(OC3CCNCC3)cn2)c1)c1nn(-c2cnn(C)c2)ccc1=O (racemic) [Example 334, rac-1-(1-Methyl-1H-pyrazol-4-yl)-3-(1-{3-[5-(piperidin-4-yloxy)pyrimidin-2-yl]phenyl}ethyl)pyridazin-4(1H)-one] |
| < 100 | O=C(Nc1cccc(Cc2nn(-c3cc(F)c(F)c(F)c3)ccc2=O)c1)OCCCn1cccc1 [Example 548, 3-(1H-pyrrol-1-yl)propyl (3-{[4-oxo-1-(3,4,5-trifluorophenyl)-1,4-dihydropyridazin-3-yl]methyl}phenyl)carbamate] |
| < 100 | CCCOc1cnc2ccc(Cc3nn(-c4cnn(C)c4)ccc3=O)cc2c1 [Example 63, 1-(1-methyl-1H-pyrazol-4-yl)-3-[(3-propoxyquinolin-6-yl)methyl]pyridazin-4(1H)-one] |
| < 100 | CCOc1cnc(-c2cccc(Cc3nn(-c4cc(F)cc(F)c4)ccc3=O)c2)nc1 [Example 146, 1-(3,5-difluorophenyl)-3-[3-(5-ethoxypyrimidin-2-yl)benzyl]pyridazin-4(1H)-one] |
| < 100 | CC(C)COC(=O)Nc1cccc(Cc2nn(-c3cnn(CC(=O)O)c3)ccc2=O)c1 [Example 181, {4-[3-(3-{[(2-methylpropoxy)carbonyl]amino}benzyl)-4-oxopyridazin-1(4H)-yl]-1H-pyrazol-1-yl}acetic acid] |
| < 100 | CCOC(=O)Nc1cccc(C(F)c2nn(-c3cnn(C)c3)ccc2=O)c1 (racemic) [Example 639, rac-Ethyl(3-{fluoro[1-(1-methyl-1H-pyrazol-4-yl)-4-oxo-1,4-dihydropyridazin-3-yl]methyl}phenyl)carbamate] |
| < 100 | Cn1cc(-n2ccc(=O)c(Cc3cccc(-c4ncc(OCc5cccnc5)cn4)c3)n2)cn1 [Example 355, 1-(1-methyl-1H-pyrazol-4-yl)-3-{3-[5-(pyridin-3-ylmethoxy)pyrimidin-2-yl]benzyl}pyridazin-4(1H)-one] |
| 100 to 1000 | CCCC(=O)Nc1cccc(Cc2nn(-c3cnn(C)c3)ccc2=O)c1 [Example 634, N-(3-{[1-(1-methyl-1H-pyrazol-4-yl)-4-oxo-1,4-dihydropyridazin-3-yl]methyl}phenyl)butanamide] |
| 100 to 1000 | CCCC(c1cccc(-c2ncc(OCC)cn2)c1)c1nn(-c2cnn(C)c2)ccc1=O (single isomer, unassigned) [Example 207, 3-{(1S or R)-1-[3-(5-ethoxypyrimidin-2-yl)phenyl]butyl}-1-(1-methyl-1H-pyrazol-4-yl)pyridazin-4(1H)-one] |
| < 100 | CC(c1cccc(-c2ncc(OC(C)C(C)(C)O)cn2)c1)c1nn(-c2cnn(C)c2)ccc1=O (single isomer, unassigned) [Example 385, 3-{(1R or S)-1-[3-(5-{[(1R or S)-2-hydroxy-1,2-dimethylpropyl]oxy}pyrimidin-2-yl)phenyl]ethyl}-1-(1-methyl-1H-pyrazol-4-yl)pyridazin-4(1H)-one] |
